For assay [1], the system named is CCRF S-180. The experiment in a line: Antineoplastic activity against mouse S180 cells at 400 uM. It counts as functional, cell-based.
The next assay deals with Human alphaherpesvirus 1. The experiment in a line: Antiviral activity against HSV1 at 400 uM. It counts as functional.
For assay [2], the system named is L1210. As to the kind of experiment: Antineoplastic activity against mouse L1210 cells at 400 uM. It counts as functional, cell-based.
Assay [3] relates to L1210. As to the kind of experiment: Antineoplastic activity against mouse L1210 cells at 9 uM in presence of thymidine relative to compound alone. It counts as functional.
Assay [4] deals with CCRF S-180. As to the kind of experiment: Antineoplastic activity against mouse S180 cells at 25 uM. It counts as functional.
The test system of assay [5] is L1210. The experiment in a line: Antineoplastic activity against mouse L1210 cells at 25 uM in presence of deoxyguanosine relative to compound alone. It counts as functional.
The subject of assay [6] is L1210. As to the kind of experiment: Antineoplastic activity against mouse L1210 cells at 3 uM. It counts as functional.
For assay [7], the system named is L1210. As to the kind of experiment: Antineoplastic activity against mouse L1210 cells at 25 uM in presence of deoxyadenosine relative to compound alone. It counts as functional.
Assay [8] relates to L1210. As to the kind of experiment: Antineoplastic activity against mouse L1210 cells at 50 uM. It counts as functional.
For assay [9], the system named is L1210. As to the kind of experiment: Antineoplastic activity against mouse L1210 cells at 3 uM in presence of thymidine relative to compound alone. It counts as functional.
For assay [10], the system named is CCRF S-180. As to the kind of experiment: Antineoplastic activity against mouse S180 cells at 250 uM. It counts as functional.
Assay [11] deals with L1210. As to the kind of experiment: Antineoplastic activity against mouse L1210 cells at 5 uM in presence of cytidine relative to compound alone. It counts as functional.
Assay [12] concerns L1210. The experiment in a line: Antineoplastic activity against mouse L1210 cells at 1 uM in presence of thymidine relative to compound alone. It counts as functional.
The test system of assay [13] is L1210. As to the kind of experiment: Antineoplastic activity against mouse L1210 cells at 25 uM in presence of deoxycytidine relative to compound alone. It counts as functional.
In assay [14] the test system is L1210. The experiment in a line: Antineoplastic activity against mouse L1210 cells at 5 uM in presence of deoxyadenosine relative to compound alone. It counts as functional.
The subject of assay [15] is L1210. As to the kind of experiment: Antineoplastic activity against mouse L1210 cells at 1 uM in presence of cytidine relative to compound alone. It counts as functional.
For assay [16], the system named is L1210. As to the kind of experiment: Antineoplastic activity against mouse L1210 cells at 25 uM in presence of deoxyuridine relative to compound alone. It counts as functional.
For assay [17], the system named is L1210. As to the kind of experiment: Antineoplastic activity against mouse L1210 cells at 500 uM. It counts as functional.
For assay [18], the system named is L1210. The experiment in a line: Antineoplastic activity against mouse L1210 cells at 15 uM. It counts as functional.
In assay [19] the test system is L1210. The experiment in a line: Antineoplastic activity against mouse L1210 cells at 1 uM in presence of deoxyuridine relative to compound alone. It counts as functional.
Assay [20] concerns L1210. The experiment in a line: Antineoplastic activity against mouse L1210 cells at 5 uM in presence of uridine relative to compound alone. It counts as functional.
Assay [21] relates to L1210. As to the kind of experiment: Antineoplastic activity against mouse L1210 cells at 250 uM. It counts as functional.
The subject of assay [22] is L1210. As to the kind of experiment: Antineoplastic activity against mouse L1210 cells at 5 uM in presence of deoxyguanosine relative to compound alone. It counts as functional.
Assay [23] deals with L1210. The experiment in a line: Antineoplastic activity against mouse L1210 cells at 0.5 uM. It counts as functional.
In assay [24] the test system is L1210. As to the kind of experiment: Antineoplastic activity against mouse L1210 cells at 25 uM in presence of uridine relative to compound alone. It counts as functional.
The subject of assay [25] is L1210. As to the kind of experiment: Antineoplastic activity against mouse L1210 cells at 27 uM in presence of thymidine relative to compound alone. It counts as functional.
The subject of assay [26] is L1210. As to the kind of experiment: Antineoplastic activity against mouse L1210 cells at 1 uM in presence of deoxycytidine relative to compound alone. It counts as functional.
The subject of assay [27] is L1210. As to the kind of experiment: Antineoplastic activity against mouse L1210 cells at 1 uM. It counts as functional.
Assay [28] deals with L1210. As to the kind of experiment: Antineoplastic activity against mouse L1210 cells at 1 uM in presence of deoxyadenosine relative to compound alone. It counts as functional.
Assay [29] has as its system L1210. The experiment in a line: Antineoplastic activity against mouse L1210 cells at 25 uM in presence of cytidine relative to compound alone. It counts as functional.
The test system of assay [30] is L1210. As to the kind of experiment: Antineoplastic activity against mouse L1210 cells at 5 uM in presence of deoxyuridine relative to compound alone. It counts as functional.
Assay [31] relates to CCRF S-180. As to the kind of experiment: Antineoplastic activity against mouse S180 cells at 1 uM. It counts as functional.
In assay [32] the test system is CCRF S-180. As to the kind of experiment: Antineoplastic activity against mouse S180 cells at 50 uM. It counts as functional.
For assay [33], the system named is L1210. As to the kind of experiment: Antineoplastic activity against mouse L1210 cells at 25 uM. It counts as functional.
The subject of assay [34] is L1210. The experiment in a line: Antineoplastic activity against mouse L1210 cells at 1 uM in presence of deoxyguanosine relative to compound alone. It counts as functional.
The test system of assay [35] is L1210. As to the kind of experiment: Antineoplastic activity against mouse L1210 cells at 1 uM in presence of uridine relative to compound alone. It counts as functional.
For assay [36], the system named is L1210. As to the kind of experiment: Antineoplastic activity against mouse L1210 cells at 5 uM in presence of deoxycytidine relative to compound alone. It counts as functional.
Assay [37] has as its system CCRF S-180. As to the kind of experiment: Antineoplastic activity against mouse S180 cells at 5 uM. It counts as functional.

Structures are written as SMILES. Calls of active or inactive are those of the source. The calls are words filed in the database; no cut-off is given here.

Here are results for three molecules from ChEMBL document CHEMBL3244003, “Synthesis and biological activity of several amino analogues of thymidine” (1978).

In general, inhibition refers to the relative decrease from the control value, in per cent. Regarding `Cc1cn([C@H]2C[C@H](N)[C@@H](CN)O2)c(=O)[nH]c1=O`, the inhibition result in the assay with CCRF S-180 [1], with Human alphaherpesvirus 1 and with L1210 [2] was “inactive” each time.
Turning to `Cc1cn([C@H]2C[C@H](N)[C@@H](CO)O2)c(=O)[nH]c1=O` [3-AMINO- 3-DEOXYTHYMIDINE], in the assay on L1210 [3], the inhibition at 9 µM is 38.1%. Further, the inhibition at 25 µM with CCRF S-180 [4] is 68%; in the assay with L1210 [5] it was 102%; with L1210 [7], 93%; with L1210 [13], 28%; in the assay with L1210 [16] it was 48%; in the assay with L1210 [24], 95%. Besides, the figures for the inhibition at 25 µM in the assay on L1210 [29] and in the assay with L1210 [33] were 99% and 88%, respectively. For the same molecule, the inhibition at 3 µM with L1210 [6] was found to be 87%; in the assay on L1210 [9], 55.2%. The inhibition at 50 µM in the assay on L1210 [8] is 92%; in the assay with CCRF S-180 [32], 66%. Moreover, the inhibition at 250 µM in the assay on CCRF S-180 [10] amounted to 73%; in the assay on L1210 [21], 93%. Moreover, the inhibition at 5 µM in the assay with L1210 [11] worked out at 100%; with L1210 [14] it was 89%; in the assay with L1210 [20], 99%; in the assay on L1210 [22], 86%; with L1210 [30], 74%; with L1210 [36], 61%. Also, the inhibition at 5 µM with CCRF S-180 [37] was found to be 55%. The inhibition at 1 µM with L1210 [12] stood at 75.2%; with L1210 [15], 100%; with L1210 [19], 88%; with L1210 [26], 80%; with L1210 [27], 58%; with L1210 [28], 89%. Further, the inhibition at 1 µM in the assay with CCRF S-180 [31] amounted to 37%; in the assay on L1210 [34], 87%; with L1210 [35] it was 100%. In addition, the inhibition at 500 µM with L1210 [17] was found to be 95%. Besides, in the assay with L1210 [18], the inhibition at 15 µM turned out to be 91%. Further, the inhibition at 0.5 µM in the assay with L1210 [23] is 43%. In the assay on L1210 [25], the inhibition at 27 µM worked out at 22.4%. Further, the inhibition at 400 µM with Human alphaherpesvirus 1 is 62%.
Turning to `Cc1cn([C@H]2C[C@H](O)[C@@H](CN)O2)c(=O)[nH]c1=O`, the inhibition result in the assay on CCRF S-180 [1] and with L1210 [2] was “inactive” throughout. Besides, in the assay with Human alphaherpesvirus 1, the inhibition at 400 µM was 98%.
